The structures appear in SMILES notation.

In one assay the test system is NCI-H3122. Nature of the assay: relative viability (nuclei count vs DMSO), 5 days (fraction); higher = more cells survive. Conditions: first compound 0.8 µM. A digest of the protocol:
(§1)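 Relative viability divides the nuclei count in treated wells by that in vehicle wells. Lung cancer cell lines were seeded in 1536-well plates, dosed by pin tool the next day, and fixed and stained after 5 days in one step with final 0.05% Triton X-100, 1% formaldehyde and 1 ug/ml Hoechst. Dosing was a single drug or a fixed anchor-drug dose plus five library-drug doses (not always all listed) in √10 steps, and values are medians of duplicate plates imaged at 4×.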
Take `Nc1cccc2c1CN(C1CCC(=O)NC1=O)C2=O` (centres undefined) [Lenalidomide] + Nc1ncn([C@H]2C[C@H](O)[C@@H](CO)O2)c(=O)n1 [Decitabine] (partner 2 µM): the relative viability stood at 0.536.
The same measure, in the same setting: in the case of `Nc1cccc2c1CN(C1CCC(=O)NC1=O)C2=O` (centres undefined) [Lenalidomide] + Cc1nc(Nc2ncc(C(=O)Nc3c(C)cccc3Cl)s2)cc(N2CCN(CCO)CC2)n1 [Dasatinib] (partner 0.075 µM) it was 0.991; in that of `Nc1cccc2c1CN(C1CCC(=O)NC1=O)C2=O` (centres undefined) [Lenalidomide] + N=C(N)NC(=N)NCCc1ccccc1 [Phenformin] (partner 250 µM), 0.387.
The same measure, in the same setting: in the case of `Nc1cccc2c1CN(C1CCC(=O)NC1=O)C2=O` (centres undefined) [Lenalidomide] + CC(=O)c1c(C)c2cnc(Nc3ccc(N4CCNCC4)cn3)nc2n(C2CCCC2)c1=O [Palbociclib] (partner 0.5 µM) it was 0.213.

The same assay, now with this note: first compound 2.53 µM.
`Nc1cccc2c1CN(C1CCC(=O)NC1=O)C2=O` (centres undefined) [Lenalidomide] + CCNC(=O)c1noc(-c2cc(C(C)C)c(O)cc2O)c1-c1ccc(CN2CCOCC2)cc1 [Luminespib] (partner 0.01 µM) had a relative viability of 0.0693.
Still for that read-out and setting: in the case of `Nc1cccc2c1CN(C1CCC(=O)NC1=O)C2=O` (centres undefined) [Lenalidomide] + Nc1ncn([C@H]2C[C@H](O)[C@@H](CO)O2)c(=O)n1 [Decitabine] (partner 2 µM) it was 0.381; in that of `Nc1cccc2c1CN(C1CCC(=O)NC1=O)C2=O` (centres undefined) [Lenalidomide] + Cc1nc(Nc2ncc(C(=O)Nc3c(C)cccc3Cl)s2)cc(N2CCN(CCO)CC2)n1 [Dasatinib] (partner 0.075 µM), 0.746.
`Nc1cccc2c1CN(C1CCC(=O)NC1=O)C2=O` (centres undefined) [Lenalidomide] + N=C(N)NC(=N)NCCc1ccccc1 [Phenformin] (partner 250 µM) returned a relative viability of 0.395.
`Nc1cccc2c1CN(C1CCC(=O)NC1=O)C2=O` (centres undefined) [Lenalidomide] + CC(=O)c1c(C)c2cnc(Nc3ccc(N4CCNCC4)cn3)nc2n(C2CCCC2)c1=O [Palbociclib] (partner 0.5 µM): the relative viability worked out at 0.232.

Staying with this assay, now noted: first compound 8 µM.
The compound `Nc1cccc2c1CN(C1CCC(=O)NC1=O)C2=O` (centres undefined) [Lenalidomide] + CCNC(=O)c1noc(-c2cc(C(C)C)c(O)cc2O)c1-c1ccc(CN2CCOCC2)cc1 [Luminespib] (partner 0.01 µM) showed a relative viability of 0.102.
As for `Nc1cccc2c1CN(C1CCC(=O)NC1=O)C2=O` (centres undefined) [Lenalidomide] + Nc1ncn([C@H]2C[C@H](O)[C@@H](CO)O2)c(=O)n1 [Decitabine] (partner 2 µM), the relative viability amounted to 0.386.
On the same count and under the same terms, as for `Nc1cccc2c1CN(C1CCC(=O)NC1=O)C2=O` (centres undefined) [Lenalidomide] + Cc1nc(Nc2ncc(C(=O)Nc3c(C)cccc3Cl)s2)cc(N2CCN(CCO)CC2)n1 [Dasatinib] (partner 0.075 µM), the figure is 0.677; as for `Nc1cccc2c1CN(C1CCC(=O)NC1=O)C2=O` (centres undefined) [Lenalidomide] + N=C(N)NC(=N)NCCc1ccccc1 [Phenformin] (partner 250 µM), 0.457.
On to `Nc1cccc2c1CN(C1CCC(=O)NC1=O)C2=O` (centres undefined) [Lenalidomide] + CC(=O)c1c(C)c2cnc(Nc3ccc(N4CCNCC4)cn3)nc2n(C2CCCC2)c1=O [Palbociclib] (partner 0.5 µM), for which the relative viability is 0.195.

The test system of the next assay is NCI-H2023. The description is as above. Particulars: first compound 0.253 µM. A digest of the protocol:
as §1
As to `Nc1cccc2c1CN(C1CCC(=O)NC1=O)C2=O` (centres undefined) [Lenalidomide] + CCNC(=O)c1noc(-c2cc(C(C)C)c(O)cc2O)c1-c1ccc(CN2CCOCC2)cc1 [Luminespib] (partner 0.01 µM), the relative viability stood at 0.869.
Turning to `Nc1cccc2c1CN(C1CCC(=O)NC1=O)C2=O` (centres undefined) [Lenalidomide] + Nc1ncn([C@H]2C[C@H](O)[C@@H](CO)O2)c(=O)n1 [Decitabine] (partner 2 µM), the relative viability was determined as 0.205.
Same read-out and setting: as for `Nc1cccc2c1CN(C1CCC(=O)NC1=O)C2=O` (centres undefined) [Lenalidomide] + Cc1nc(Nc2ncc(C(=O)Nc3c(C)cccc3Cl)s2)cc(N2CCN(CCO)CC2)n1 [Dasatinib] (partner 0.075 µM), the figure is 0.612.
`Nc1cccc2c1CN(C1CCC(=O)NC1=O)C2=O` (centres undefined) [Lenalidomide] + N=C(N)NC(=N)NCCc1ccccc1 [Phenformin] (partner 250 µM) showed a relative viability of 0.405.
Still for that read-out and setting: in the case of `Nc1cccc2c1CN(C1CCC(=O)NC1=O)C2=O` (centres undefined) [Lenalidomide] + CC(=O)c1c(C)c2cnc(Nc3ccc(N4CCNCC4)cn3)nc2n(C2CCCC2)c1=O [Palbociclib] (partner 0.5 µM) it was 0.405.

The assay is the same for the next values; noted with them: first compound 0.8 µM.
On to `Nc1cccc2c1CN(C1CCC(=O)NC1=O)C2=O` (centres undefined) [Lenalidomide] + CCNC(=O)c1noc(-c2cc(C(C)C)c(O)cc2O)c1-c1ccc(CN2CCOCC2)cc1 [Luminespib] (partner 0.01 µM), for which the relative viability turned out to be 0.915.
In the case of `Nc1cccc2c1CN(C1CCC(=O)NC1=O)C2=O` (centres undefined) [Lenalidomide] + Nc1ncn([C@H]2C[C@H](O)[C@@H](CO)O2)c(=O)n1 [Decitabine] (partner 2 µM), the relative viability was found to be 0.269.
In the case of `Nc1cccc2c1CN(C1CCC(=O)NC1=O)C2=O` (centres undefined) [Lenalidomide] + Cc1nc(Nc2ncc(C(=O)Nc3c(C)cccc3Cl)s2)cc(N2CCN(CCO)CC2)n1 [Dasatinib] (partner 0.075 µM), the relative viability worked out at 0.515.
On to `Nc1cccc2c1CN(C1CCC(=O)NC1=O)C2=O` (centres undefined) [Lenalidomide] + N=C(N)NC(=N)NCCc1ccccc1 [Phenformin] (partner 250 µM), for which the relative viability was 0.522.
Still for that read-out and setting: as for `Nc1cccc2c1CN(C1CCC(=O)NC1=O)C2=O` (centres undefined) [Lenalidomide] + CC(=O)c1c(C)c2cnc(Nc3ccc(N4CCNCC4)cn3)nc2n(C2CCCC2)c1=O [Palbociclib] (partner 0.5 µM), the figure is 0.419.

The assay is the same for the next values; noted with them: first compound 2.53 µM.
For the compound `Nc1cccc2c1CN(C1CCC(=O)NC1=O)C2=O` (centres undefined) [Lenalidomide] + CCNC(=O)c1noc(-c2cc(C(C)C)c(O)cc2O)c1-c1ccc(CN2CCOCC2)cc1 [Luminespib] (partner 0.01 µM), the relative viability was 0.685.
Same read-out and setting: in the case of `Nc1cccc2c1CN(C1CCC(=O)NC1=O)C2=O` (centres undefined) [Lenalidomide] + Nc1ncn([C@H]2C[C@H](O)[C@@H](CO)O2)c(=O)n1 [Decitabine] (partner 2 µM) it was 0.248; in that of `Nc1cccc2c1CN(C1CCC(=O)NC1=O)C2=O` (centres undefined) [Lenalidomide] + Cc1nc(Nc2ncc(C(=O)Nc3c(C)cccc3Cl)s2)cc(N2CCN(CCO)CC2)n1 [Dasatinib] (partner 0.075 µM), 0.608.
On the same count and under the same terms, as for `Nc1cccc2c1CN(C1CCC(=O)NC1=O)C2=O` (centres undefined) [Lenalidomide] + N=C(N)NC(=N)NCCc1ccccc1 [Phenformin] (partner 250 µM), the figure is 0.431; as for `Nc1cccc2c1CN(C1CCC(=O)NC1=O)C2=O` (centres undefined) [Lenalidomide] + CC(=O)c1c(C)c2cnc(Nc3ccc(N4CCNCC4)cn3)nc2n(C2CCCC2)c1=O [Palbociclib] (partner 0.5 µM), 0.403.

Source of the values: the supplement of paper PMC10307832.
